According to US20110038856A1, “METHODS OF TREATING NEOPLASTIC, AUTOIMMUNE AND INFLAMMATORY DISEASES” (Seattle Genetics, Inc., priority 2006, published 2011):

Assays:
[1] = tested on: primary human macrophages; experiment: Cytokine/chemokine production by primary human macrophages; assay type: cell-based; details: for production of IL-6, TNF-α, RANTES, and MCP-1: pre-incubation 3 hours with antibody, 24 hours
Description: Primary human macrophages were generated from long-term cultures of freshly isolated human peripheral blood mononuclear cells (PBMCs; AllCells, Emeryville, Calif. or LifeBlood, Memphis, Tenn.). PBMCs were cultured in tissue culture flasks in RPMI 1640 medium containing glutamine (Invitrogen, Grand Island, N.Y.), 10% heat-inactivated FBS, and antibiotics for 3 to 4 hours. Non-adherent cells were removed by washing with PBS and the adherent cells were cultured in OptiMem-1 medium (Invitrogen) containing 1% heat-inactivated FBS for 1 to 2 hours. The cells were washed with PBS and cultured for 10 to 14 days in X-VIVO-15 medium (Cambrex Bio Science, Walkersville, Md.) containing 500 U/ml GM-CSF (Peprotech, Rocky Hill, N.J.). […]

[2] = tested on: human CD14+ monocytes; experiment: Cytokine/chemokine production by primary human CD14+ monocytes; assay type: cell-based
[3] = tested on: patients with relapsed and refractory acute myeloid leukemia (AML); details: low dose with infrequent administration; cited from earlier work
[4] = tested on: KG-1 AML cell line; experiment: Cytokine production by KG-1 AML cell line; assay type: cell-based; details: 2.5 μg/ml pre-treatment, then 1 ng/ml TNF-alpha; media harvested 18 h later; versus control antibody
Description: Media was harvested 18 h later for cytokine analyses.

[5] = tested on: HL-60 cells; experiment: Mouse AML model, HL-60 cells injected intravenously; assay type: in vivo, mice; details: q4d×5, ip, FIG. 24
Description: Mice were implanted with an AML cell line, HL-60, as follows: 5 million HL-60 cells were injected intravenously. The mice were treated with lintuzumab (10 mg/kg, q4d×4, ip), cytarabine (1 mg/kg, 5 mg/kg or 25 mg/kg, q1d×10, or 50 mg/kg or 100 mg/kg, q2d×5, ip) or lintuzumab with cytarabine (dosed as described previously). Treatment began on day one.
To confirm the data of the in vitro study, mice were implanted with an AML cell line, HL-60, as follows: 5 million HL-60 cells were injected intravenously. […] Treatment began on day one.

[6] = target: T1, CD33 (Homo sapiens, UniProt P20138); experiment: Recruitment of SHP phosphatases / Syk to CD33 in HL-60 cells (immunoprecipitation, Western blot); assay type: cell-based; set-up: endogenous in cells; host or cells: HL-60 (ATCC); primary human CD14+ monocytes (Cambrex); macrophages derived from human PBMCs
Description: To determine whether the humanized M195 antibody also recruits SHP phosphatases, HL-60 cells were treated with soluble or cross-linked anti-CD33 antibodies. Cell extracts were prepared and CD33 was immunoprecipitated with an anti-CD33 antibody (MY9 clone). Western blotting was performed with an anti-SHP-1 antibody (sc-287; Santa Cruz Biotechnology, Inc., Santa Cruz, Calif.).

[7] = tested on: primary human macrophages; experiment: Macrophage migration in response to chemoattractants (CytoSelect Cell Migration Assay); assay type: cell-based
Description: (§1) The migration of macrophages in response to challenge with plating media containing 10% human serum, 20% conditioned tumor cell media, or 50 ng/ml TGF-β, VEGF, TNF-α, or IFN-γ was evaluated using the CytoSelect Cell Migration Assay (Cell Biolabs, San Diego, Calif.). […] The study was stopped 18 hours later and migration was evaluated after dissociation of the cells from the membrane followed by detection with Cyquant GR dye.
as §1, with “serum or” for “serum,”, “media” for “media, or 50 ng/ml TGF-β, VEGF, TNF-α, or IFN-γ”, “studies were” for “study was”, “h” for “hours”

[8] = tested on: patients with advanced myeloid malignancies (AML, MDS, CMML); experiment: Phase 1 single-arm dose escalation trial in patients with advanced myeloid malignancies
Description: Entry criteria included CD33 expression on >50% of the marrow blasts to ensure that adequate target antigen was present. […] Clinical response was assessed by bone marrow morphology and hematologic improvement. […] Among AML patients, 6 had antecedent hematologic disorder. Dosing cohorts included 1.5 (6), 2.5 (4), 4 (4), and 8 mg/kg (17).

[9] = target: T1, CD33; experiment: CD33 tyrosine phosphorylation in CD33-positive AML lines (CD33 immunoprecipitation, anti-phosphotyrosine Western blot); assay type: cell-based; set-up: endogenous in cells; host or cells: HL-60 (ATCC); primary human CD14+ monocytes (Cambrex); macrophages derived from human PBMCs
Description: CD33-positive cell lines were treated with anti-CD33 antibodies (lintuzumab and certain commercially available antibodies). Cell extracts were prepared and CD33 was immunoprecipitated using an anti-CD33 antibody (MY9 clone; Beckman Coulter, Calif.). Western blotting was performed with an anti-phosphotyrosine antibody (4G10; Upstate Biotechnologies, Inc., Lake Placid, N.Y.). […] Two forms of CD33 were detected (due to either splicing of CD33 mRNA or post-translational modification of CD33).

T1 sequence (P20138 18-364): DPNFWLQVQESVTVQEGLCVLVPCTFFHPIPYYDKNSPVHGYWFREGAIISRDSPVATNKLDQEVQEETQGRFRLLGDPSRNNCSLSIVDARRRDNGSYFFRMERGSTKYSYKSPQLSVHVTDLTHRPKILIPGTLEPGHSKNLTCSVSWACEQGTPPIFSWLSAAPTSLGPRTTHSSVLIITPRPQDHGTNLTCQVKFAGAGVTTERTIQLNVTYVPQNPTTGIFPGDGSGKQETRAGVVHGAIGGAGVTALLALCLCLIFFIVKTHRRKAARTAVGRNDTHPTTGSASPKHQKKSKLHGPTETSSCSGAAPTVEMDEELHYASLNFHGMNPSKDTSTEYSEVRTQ

In the case of “SGN-33: anti-CD33 antibody, a humanized version of mouse monoclonal antibody M195”, the “levels of IL-6, TNF-α, MCP-1, and RANTES” value ([1]; macrophages treated 1 h prior to IFN-γ, LPS, or TGF-β, supernatants 18 h later, FIG. 18) was “significantly reduced”, the “production of IL-6, TNF-α, RANTES, and MCP-1” value ([1]; in response to IFN-γ, FIG. 6) was “reduced production” and the “production of IL-6, TNF-α, RANTES, and MCP-1” value ([1]; in response to conditioned media from RPMI-8226 and Karpus-620 cells, FIG. 7) was “reduced production”. For the same substance, the “levels of TNF-α” value ([1]; primary human macrophages, various doses of SGN-33, 1 hr prior to IFN-γ, 18 h, p<0.05, FIG. 20) was “significantly reduced levels of TNF-α in a dose-dependent manner”, the “production of IL-6, TNF-α, MCP-1, IL-8, and RANTES” value ([2]; CD14+ primary human monocytes activated with IFN-γ, previous studies (Example 3)) was “significantly reduced” and the “level of RANTES” value ([2]; adherent CD14+ monocytes, IFN-γ stimulated, FIG. 10) was “reduced”. The “level of RANTES” value ([2]; adherent CD14+ monocytes, RPMI-8228 conditioned media stimulated, FIG. 11) was “reduced”, the “level of TNF-α” value ([2]; adherent CD14+ monocytes, basal level, FIG. 11) was “reduced the basal level” and the “levels of IL-6, MCP-1, TNF-α, and IL-8” value ([2]; adherent CD14+ monocytes, basal levels and IFN-γ stimulated levels, 48 hours, FIG. 10) was “reduced”. The “levels of IL-6, MCP-1, and IL-8” value ([2]; adherent CD14+ monocytes, basal levels and RPMI-8228 conditioned media stimulated levels, FIG. 11) was “reduced”, the “levels of IL-6, IL-8, TNF-α and MCP-1” value ([2]; non-adherent CD14+ monocytes upon exposure to SGN-33, FIG. 12) was “small increases” and the “production of cytokines, chemokines and growth factors” value ([2]; non-adherent CD14+ monocytes, IFN-γ, FIG. 12) was “not inhibited”. For the same substance, the “levels of IL-6, MCP-1, IL8 and RANTES” value ([2]; non-adherent CD14+ monocytes, stimulated by RPMI-8226 conditioned media, FIG. 12) was “reduced”, the “IFN-γ-stimulated production of IL-10, IL-10, IL-12, and MIP-1α” value ([2]; primary human monocytes treated 1 hr prior to IFN-γ, supernatants 18 h later, p<0.001, FIG. 19) was “significantly reduced” and the “levels of TNF-α” value ([2]; primary human monocytes, various doses of SGN-33, 1 hr prior to IFN-γ, 18 h, p<0.05, FIG. 20) was “significantly reduced levels of TNF-α in a dose-dependent manner”. The blast cells [3] was “induced significant reductions in blast cells”, the “production of IL-8, IP-10, M11b, RANTES, and MCP-1” value [4] was “reduced the production” and the survival rate ([5]; SGN-33 30 mg/kg) was about 85%. For the same substance, the survival rate ([5]; SGN-33 3 or 10 mg/kg) was about 50%, the “recruitment of SHP-2” value ([6]; data not shown) was “did not recruit” and the “recruitment of Syk” value ([6]; data not shown) was “did not recruit”. The “recruitment of SHP-1 to CD33” value ([6]; soluble or cross-linked antibody, FIG. 3) was “recruited SHP-1 to CD33”, the macrophage migration ([7]; 10% human serum or 20% conditioned media from RPMI 8226 cells, p<0.05, FIG. 21) was “significantly reduced” and the “blocking of macrophage migration” value ([7]; SGN-33 added to neuraminidase-treated macrophages, versus neuraminidase alone, FIG. 14C) was “greater blocking effect”. The “movement of the macrophages toward chemoattractants” value ([7]; cells pre-treated, 10% serum or conditioned medium, FIG. 14B) was “significantly reduced”, the migration of macrophages ([7]; in response to conditioned tumor cell media, TGF-β, VEGF, TNF-α, and IFN-γ) was “significantly opposed the migration” and the tolerability ([8]; 1.5 mg/kg/wk, N=6, previously untreated patients, average age 76 years) was “well tolerated”. The “patients achieving CR” value ([8]; among 18 patients with AML) was 4, the “patients achieving CR with incomplete platelet recovery” value ([8]; among 18 patients with AML) was 1 and the antitumor activity ([8]; an elderly patient with previously untreated AML) was “antitumor activity was observed”. The maximal tolerated dose ([8]; at 1.5 mg/kg/wk, N=6) was “without any evidence that a maximal tolerated dose has been reached”, the “exposure (AUC)” value ([8]; doses 1.5 to 8 mg/kg) was “increased relative to dose” and the tolerability ([8]; doses up to 8 mg/kg/wk) was “well tolerated”. For the same substance, the anti-SGN-33 immune responses ([8]; first 15 patients tested) was “No anti-SGN-33 immune responses were detected”, the “Grade 4 adverse events considered related to antibody” value ([8]; human, in vivo) was “none” and the “infusion reactions during subsequent doses” value ([8]; human, in vivo) was “uncommon”. The accumulation ([8]; repeat dosing) was “accumulation was documented with repeat dosing”, the “Grade 3 adverse events considered related to antibody” value ([8]; tumor lysis syndrome at 4 mg/kg, febrile neutropenia at 8 mg/kg) was 2 and the “chills associated with the first infusion (most common drug-related adverse event)” value ([8]; weekly iv doses of 1.5 to 8 mg/kg) was 11/31. For the same substance, the dose limiting toxicity ([8]; weekly iv doses of 1.5 to 8 mg/kg, 31 patients) was “has not been observed”, the “CD33 tyrosine phosphorylation, soluble versus cross-linked antibody” value ([9]; HL-60 and U937 cells, FIG. 2) was “more effective than cross-linked antibody” and the CD33 tyrosine phosphorylation ([9]; HL-60 and U937 cells, soluble or cross-linked antibody, compared with control human IgG1, FIG. 2) was “stimulated CD33 tyrosine phosphorylation”. The CD33 tyrosine phosphorylation ([9]; HL-60 cells, both soluble and cross-linked antibody, FIG. 1) was “stimulated CD33 tyrosine phosphorylation”.
